Patent US9011853B2, “B7-H4 fusion proteins and methods of use thereof” (Amplimmune, Inc., priority 2009, dated 2015)
Several values for one entry are separate records, joined by “and”; a condition that tells them apart may be missing. Equal values may be shown once.

Test system: serum levels of 58 analytes
Experiment: Serum biomarker analysis, quantitative immunoassay multi-analyte profiling (Rules-Based Medicine RodentMAP v2.9), AA#80
Type: in vivo, mouse
Conditions: serum; for GCP-2 (Granulocyte Chemotactic Potein-2): LDD 0.0245; for GCP-2 (Granulocyte Chemotactic Potein-2) / IL-17-(Interleukin-17) / GST-alpha (Glutathione S-Transferase alpha) / IL-1beta (Interleukin-1beta) / IL-12p70-(Interleukin-12p70) / FGF-basic (Fibroblast Growth Factor-basic) / Haptoglobin / IL-18 (Interleukin-18) / CRP (C Reactive Protein) / Factor VII / FGF-9 (Fibroblast Growth Factor-9) / GM-CSF (Granulocyte Macrophage-Colony Stimulating Factor) / Apo A1 (Apoilpoprotein A1) / CD40 / Eotaxin / IL-3 (Interleukin-3) / EGF (Epidermal Growth Factor) / IL-1alpha (Interleukin-1alpha) / Endothelin-1 / IL-2 (Interleukin-2) / IFN-gamma (Interferon-gamma) / IL-4 (Interleukin-4) / IL-11 (Interleukin-11) / CD40 Ligand / IL-10 (Interleukin-10) / Fibrinogen: individual mice; for IL-17-(Interleukin-17): LDD 0.152; for GST-alpha (Glutathione S-Transferase alpha): LDD 0.42; for IL-1beta (Interleukin-1beta): LDD 0.447; for IL-12p70-(Interleukin-12p70): LDD 0.5712; for FGF-basic (Fibroblast Growth Factor-basic): LDD 0.577; for Haptoglobin: LDD 0.64; for IL-18 (Interleukin-18): LDD 0.674; for CRP (C Reactive Protein): LDD 0.83; for Factor VII: LDD 0.958; for FGF-9 (Fibroblast Growth Factor-9): LDD 0.9926; for GM-CSF (Granulocyte Macrophage-Colony Stimulating Factor): LDD 8.746; for Apo A1 (Apoilpoprotein A1): LDD 10.4; for CD40: LDD 12; for Eotaxin: LDD 12.25; for IL-3 (Interleukin-3): LDD 21.274; for EGF (Epidermal Growth Factor): LDD 39.1; for IL-1alpha (Interleukin-1alpha): LDD 44.92; for Endothelin-1: LDD 66.95; for IL-2 (Interleukin-2): LDD 67; for IFN-gamma (Interferon-gamma): LDD 67.82; for IL-4 (Interleukin-4): LDD 73.54; for IL-11 (Interleukin-11): LDD 87.38; for CD40 Ligand: LDD 92; for IL-10 (Interleukin-10): LDD 109.26; for Fibrinogen: LDD 170
Experimental: In AA#80, serum samples were collected on Day 27, Day 34, Day 41 and Day 55 via the submandibular vein. Approximately 200 μL of blood per mouse was collected in Microtainer® serum separator tubes. Serum was removed following centrifugation and stored at <−65° C. until analysis.
Selected serum samples were sent to Rules-Based Medicine (Austin, Tex.) for quantitative immunoassay multi-analyte profiling of serum samples, with the goal of identifying biomarkers that could be used to monitor disease progression and response to B7-H4-Ig treatment. Day 27, Day 34, and Day 41 sera from the three representative mice in the B7-H4-Ig group (tag #3332, 3334, and 3338) and three representative mice in the Synagis® group (tag #3324, 3329, and 3330) were analyzed for levels of 58 analytes using the RodentMAP v2.9 Testing Service.
Data from the Rules-Based Medicine analysis was analyzed using Microsoft Excel and GraphPad Prism software. T-tests were performed to compare the levels of each analyte in the B7-H4-Ig versus Synagis® treated samples. No correction was made for multiple comparisons. Additionally, correlation coefficients were calculated for each analyte versus disease score.

Human B7-H4-Ig: human B7-H4 extracellular domain fused to hinge, CH2 and CH3 regions of human immunoglobulin Cγ1 chain; representative SEQ ID NOs:114-137
MDC (Macrophage-Derived Chemokine) (Day 41, LDD 21.85): 1350 pg/mL and 1110 pg/mL and 1290 pg/mL
MCP-3 (Monocyte Chemoattractant Protein-3) (Day 41, LDD 31.36): 197 pg/mL and 115 pg/mL and 132 pg/mL
VEGF (Vescular Endotheial Cell Growth Factor) (Day 41, LDD 38.2): 125 pg/mL and 120 pg/mL and 155 pg/mL
IP-10 (Inducible Protein-10) (Day 41, LDD 40.28): 69.3 pg/mL and 47.6 pg/mL and 59 pg/mL
LIF (Leukemia Infabitory Factor) (Day 41, LDD 43.6): 1540 pg/mL and 1980 pg/mL
MCP-5 (Monocyte Chemoattractant Protein-5) (Day 41, LDD 46.38): 48.8 pg/mL and 35.7 pg/mL and 37.9 pg/mL
SCF (Stem Cell Factor) (Day 41, LDD 75.17): 175 pg/mL and 198 pg/mL and 210 pg/mL
Lymphotactin (Day 41, LDD 85.48): 187 pg/mL and 148 pg/mL
VWF (Von Willebrand Factor) (Day 41, LDD 98.6): 113 ng/mL and 111 ng/mL and 133 ng/mL
GCP-2 (Granulocyte Chemotactic Potein-2) (Day 27): 18 ng/mL and 18.5 ng/mL and 16.6 ng/mL
IL-17-(Interleukin-17) (Day 27): <low> (2×) and 0.00451 ng/ml
GST-alpha (Glutathione S-Transferase alpha) (Day 27): <low>
IL-1beta (Interleukin-1beta) (Day 27): 4.36 ng/ml (2×) and 1.98 ng/ml
IL-12p70-(Interleukin-12p70) (Day 27): 0.0532 ng/ml (2×) and <low>
FGF-basic (Fibroblast Growth Factor-basic) (Day 27): 18.8 ng/mL and 17.8 ng/mL and 16.8 ng/mL
Haptoglobin (Day 27): 161 µg/mL and 204 µg/mL and 123 µg/mL
IL-18 (Interleukin-18) (Day 27): 13.3 ng/mL and 14.1 ng/mL and 11.7 ng/mL
CRP (C Reactive Protein) (Day 27): 13.4 µg/mL and 8.16 µg/mL and 7.98 µg/mL
Factor VII (Day 27): 33 ng/mL and 29.1 ng/mL and 26.4 ng/mL
FGF-9 (Fibroblast Growth Factor-9) (Day 27): <low>
GM-CSF (Granulocyte Macrophage-Colony Stimulating Factor) (Day 27): <low>
Apo A1 (Apoilpoprotein A1) (Day 27): 57.3 µg/mL and 53.7 µg/mL and 42.7 µg/mL
CD40 (Day 27): 135 pg/ml (2×) and 151 pg/ml
Eotaxin (Day 27): 626 pg/mL and 613 pg/mL and 623 pg/mL
IL-3 (Interleukin-3) (Day 27): <low>
EGF (Epidermal Growth Factor) (Day 27): 18.4 pg/mL and 21.4 pg/mL and 20.4 pg/mL
IL-1alpha (Interleukin-1alpha) (Day 27): 468 pg/mL and 284 pg/mL and 381 pg/mL
Endothelin-1 (Day 27): 20.2 pg/ml (2×) and 17.1 pg/ml
IL-2 (Interleukin-2) (Day 27): <low>
IFN-gamma (Interferon-gamma) (Day 27): <low> (2×) and 7.14 pg/ml
IL-4 (Interleukin-4) (Day 27): <low> and 27.9 pg/ml and 17.7 pg/ml
IL-11 (Interleukin-11) (Day 27): <low> (2×) and 27 pg/ml
CD40 Ligand (Day 27): 1980 pg/mL and 1550 pg/mL and 1320 pg/mL
IL-10 (Interleukin-10) (Day 27): <low> (2×) and 94.2 pg/ml
Fibrinogen (Day 27): <low>
GCP-2 (Granulocyte Chemotactic Potein-2) (Day 34): 17.1 ng/mL and 18.1 ng/mL and 16.2 ng/mL
IL-17-(Interleukin-17) (Day 34): 0.0152 ng/mL and 0.00808 ng/mL and 0.00572 ng/mL
GST-alpha (Glutathione S-Transferase alpha) (Day 34): <low> and 4.16 ng/ml and 2.96 ng/ml
IL-1beta (Interleukin-1beta) (Day 34): 5.12 ng/mL and 3.58 ng/mL
IL-12p70-(Interleukin-12p70) (Day 34): 0.0725 ng/ml and <low>
FGF-basic (Fibroblast Growth Factor-basic) (Day 34): 17.8 ng/mL
Haptoglobin (Day 34): 281 µg/mL and 162 µg/mL and 140 µg/mL
IL-18 (Interleukin-18) (Day 34): 11.7 ng/mL and 10.9 ng/mL and 13.1 ng/mL
CRP (C Reactive Protein) (Day 34): 17.2 µg/mL and 8.79 µg/mL and 12.4 µg/mL
Factor VII (Day 34): 31.7 ng/mL and 33 ng/mL and 29.1 ng/mL
FGF-9 (Fibroblast Growth Factor-9) (Day 34): <low>
GM-CSF (Granulocyte Macrophage-Colony Stimulating Factor) (Day 34): <low>
Apo A1 (Apoilpoprotein A1) (Day 34): 37.8 µg/mL and 48.5 µg/mL and 54.1 µg/mL
CD40 (Day 34): 96.7 pg/mL and 147 pg/mL and 136 pg/mL
Eotaxin (Day 34): 630 pg/mL and 602 pg/mL and 700 pg/mL
IL-3 (Interleukin-3) (Day 34): <low>
EGF (Epidermal Growth Factor) (Day 34): 22.4 pg/mL and 14.3 pg/mL and 20.4 pg/mL
IL-1alpha (Interleukin-1alpha) (Day 34): 361 pg/mL and 447 pg/mL and 587 pg/mL
Endothelin-1 (Day 34): 22.2 pg/mL and 20.2 pg/mL
IL-2 (Interleukin-2) (Day 34): <low>
IFN-gamma (Interferon-gamma) (Day 34): 7.14 pg/mL and 3.58 pg/mL
IL-4 (Interleukin-4) (Day 34): 17.7 pg/ml and <low>
IL-11 (Interleukin-11) (Day 34): 17.1 pg/mL
CD40 Ligand (Day 34): 1370 pg/mL and 2030 pg/mL and 2180 pg/mL
IL-10 (Interleukin-10) (Day 34): 94.2 pg/ml and <low>
Fibrinogen (Day 34): 136 ug/ml and <low>
GCP-2 (Granulocyte Chemotactic Potein-2) (Day 41): 16.9 ng/mL and 16.3 ng/mL and 20.9 ng/mL
IL-17-(Interleukin-17) (Day 41): 0.00572 ng/ml (2×) and <low>
GST-alpha (Glutathione S-Transferase alpha) (Day 41): 1.01 ng/mL and 0.477 ng/mL and 1.64 ng/mL
IL-1beta (Interleukin-1beta) (Day 41): 4.36 ng/ml and 5.12 ng/ml (2×)
IL-12p70-(Interleukin-12p70) (Day 41): <low> (2×) and 0.0914 ng/ml
FGF-basic (Fibroblast Growth Factor-basic) (Day 41): 19.9 ng/mL and 17.8 ng/mL and 18.8 ng/mL
Haptoglobin (Day 41): 267 µg/mL and 270 µg/mL and 193 µg/mL
IL-18 (Interleukin-18) (Day 41): 13.3 ng/mL and 11.7 ng/mL and 11.5 ng/mL
CRP (C Reactive Protein) (Day 41): 17.1 µg/mL and 10.6 µg/mL and 12.1 µg/mL
Factor VII (Day 41): 36.9 ng/mL and 30.4 ng/mL and 27.7 ng/mL
FGF-9 (Fibroblast Growth Factor-9) (Day 41): <low>
GM-CSF (Granulocyte Macrophage-Colony Stimulating Factor) (Day 41): <low>
Apo A1 (Apoilpoprotein A1) (Day 41): 46.8 µg/mL and 49.5 µg/mL and 46 µg/mL
CD40 (Day 41): 108 pg/mL and 105 pg/mL and 140 pg/mL
Eotaxin (Day 41): 629 pg/mL and 493 pg/mL and 694 pg/mL
IL-3 (Interleukin-3) (Day 41): <low>
EGF (Epidermal Growth Factor) (Day 41): 28.4 pg/mL and 16.3 pg/mL and 18.4 pg/mL
IL-1alpha (Interleukin-1alpha) (Day 41): 488 pg/mL and 284 pg/mL and 1950 pg/mL
Endothelin-1 (Day 41): 21.2 pg/mL and 20.2 pg/mL and 16 pg/mL
IL-2 (Interleukin-2) (Day 41): <low>
IFN-gamma (Interferon-gamma) (Day 41): 3.58 pg/ml (2×) and 7.14 pg/ml
IL-4 (Interleukin-4) (Day 41): 35.7 pg/ml and 17.7 pg/ml (2×)
IL-11 (Interleukin-11) (Day 41): 17.1 pg/ml and <low> (2×)
CD40 Ligand (Day 41): 1680 pg/mL and 1630 pg/mL and 1830 pg/mL
IL-10 (Interleukin-10) (Day 41): <low>
Fibrinogen (Day 41): <low> (2×) and 118 ug/ml
